Reference: patent publication US11986471B2, “Compounds and methods of use” (Tango Therapeutics, Inc., priority 2018, dated 2024)

Legend:
PRMT5 [1] = biological target: T1, PRMT5 (Homo sapiens, UniProt O14744); experiment: PRMT5 IC50 assay in the presence of MTA as cofactor; type: biochemical; conditions: for IC50: PRMT5, MTA as cofactor; for SAM/MTA Ratio: ratio between Ki in the presence of SAM and Ki in the presence of MTA
T1 construct: purchased Viva (custom protein)
Method in brief: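 Each compound is tested on PRMT5 in the presence of SAM, of MTA, and without any cofactor. Ki values are then back-calculated using fixed factors of 1.5 (SAM) and 13.5 (MTA), and the two Ki values are compared as a ratio.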

HAP1 MTAP-intact = experiment: SDMA in-cell western assay, HAP1 MTAP-intact cell line; type: cell-based; conditions: Homo sapiens
Method in brief: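 Symmetric dimethylarginine (SDMA) levels were measured by in-cell western in an isogenic HAP1 pair, one expressing endogenous MTAP and one MTAP-null, and IC50 values were derived for each line. Compounds whose IC50 ratio between the lines is 3-fold or more are classed as MTAP-selective.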

PRMT5 [2] = biological target: T1, PRMT5; experiment: PRMT5 IC50 assay with no cofactor; type: biochemical; conditions: read-out: No Co-factor IC50
Method in brief: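 Results given as IC50 (μM), from which Ki follows by dividing by 1.5 in the SAM condition or by 13.5 in the MTA condition. The ratio of SAM Ki to MTA Ki indicates MTA-cooperative preference.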

PRMT5 [3] = biological target: T1, PRMT5; experiment: PRMT5 IC50 assay in the presence of SAM as cofactor; type: biochemical
Method in brief: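 Three cofactor conditions are run: SAM-bound, MTA-bound and cofactor-free enzyme. IC50 is read from each; for the SAM and MTA arms it is divided by 1.5 and 13.5 respectively to give Ki.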

HAP1 MTAP-deleted = experiment: SDMA in-cell western assay, HAP1 MTAP-deleted cell line; type: cell-based; conditions: for IC50: Homo sapiens, HAP1 MTAP-deleted cell line; for MTAP Intact/Deleted Ratio: IC50 ratio HAP1 MTAP-intact / HAP1 MTAP-deleted
Method in brief: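 Symmetric dimethylarginine (SDMA) levels were measured by in-cell western in MTAP-null HAP1 cells, one half of an MTAP-isogenic pair whose partner line expresses endogenous MTAP. Compound potency is reported as IC50.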

T1 sequence (O14744 whole entry): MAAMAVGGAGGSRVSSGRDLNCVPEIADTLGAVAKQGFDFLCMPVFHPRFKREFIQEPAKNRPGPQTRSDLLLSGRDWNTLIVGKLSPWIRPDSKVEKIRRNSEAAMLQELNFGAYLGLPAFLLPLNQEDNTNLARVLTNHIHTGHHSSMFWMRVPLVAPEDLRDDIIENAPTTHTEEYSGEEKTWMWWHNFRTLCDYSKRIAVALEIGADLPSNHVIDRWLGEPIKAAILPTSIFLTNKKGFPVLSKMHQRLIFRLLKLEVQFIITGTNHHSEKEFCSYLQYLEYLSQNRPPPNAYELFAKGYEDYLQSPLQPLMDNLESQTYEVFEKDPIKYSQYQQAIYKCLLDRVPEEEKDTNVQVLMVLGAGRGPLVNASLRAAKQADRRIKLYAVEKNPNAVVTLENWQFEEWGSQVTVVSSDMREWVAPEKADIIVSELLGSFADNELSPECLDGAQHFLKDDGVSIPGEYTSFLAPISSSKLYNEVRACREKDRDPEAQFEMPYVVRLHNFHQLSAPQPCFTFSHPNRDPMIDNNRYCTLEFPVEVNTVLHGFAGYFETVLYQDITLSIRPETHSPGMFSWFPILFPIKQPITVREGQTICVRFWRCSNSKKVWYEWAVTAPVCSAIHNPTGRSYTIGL
T1 sequence (Q9BQA1 whole entry partner): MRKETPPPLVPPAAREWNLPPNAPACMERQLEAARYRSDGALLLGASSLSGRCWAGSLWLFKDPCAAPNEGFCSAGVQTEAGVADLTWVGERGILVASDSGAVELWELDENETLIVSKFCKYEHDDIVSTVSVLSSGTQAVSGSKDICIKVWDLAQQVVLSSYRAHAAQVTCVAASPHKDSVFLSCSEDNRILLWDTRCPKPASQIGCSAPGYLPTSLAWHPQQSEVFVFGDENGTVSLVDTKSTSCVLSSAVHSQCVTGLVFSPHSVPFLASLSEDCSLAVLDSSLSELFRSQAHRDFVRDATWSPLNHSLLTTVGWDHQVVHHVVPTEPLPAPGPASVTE

SMILES: CN(C)CCOc1cc(C(=O)NC[C@H](O)CN2CCc3c(ccc(OCc4cnco4)c3Cl)C2)cc(NC2CCC2)n1 [Compound 329, (S)—N-(3-(5-chloro-6-(oxazol-5-ylmethoxy)-3N-dihydroisoquinolin-2(1H)-yl)-2-hydroxypropyl)-2-(cyclobutylamino)-6-(2-(dimethylamino)ethoxy)isonicotinamide]
- IC50 (PRMT5 [1]): < 50 nM
- SAM/MTA Ratio (PRMT5 [1]): A (a Ki ratio greater than or equal to 10 fold between the Ki in the presence of SAM and the Ki in the presence of MTA)
- IC50 (HAP1 MTAP-intact): ≥ 10000 nM
- IC50 (PRMT5 [2]): 500 to 5000 nM
- IC50 (PRMT5 [3]): 50 to 500 nM
- IC50 (HAP1 MTAP-deleted): 1000 to 10000 nM
- MTAP Intact/Deleted Ratio (HAP1 MTAP-deleted): B* (an IC50 ratio greater than or equal to 3 fold but lower than 10 fold between the IC50 in the HAP1 MTAP-intact cell line and the HAP1 MTAP-deleted cell line)

SMILES: O=C(NC[C@H](O)CN1CCc2c(ccc(OCc3cnco3)c2Cl)C1)c1ccc(OC2CCN(Cc3ccccc3)CC2)cc1 [Compound 330, (S)-4-((1-benzylpiperidin-4-yl)oxy)-N-(3-(5-chloro-6-(oxazol-5-ylmethoxy)-3,4-dihydroisoquinolin-2(1H)-yl)-2-hydroxypropyl)benzamide]
- IC50 (PRMT5 [1]): 50 to 500 nM
- SAM/MTA Ratio (PRMT5 [1]): A (a Ki ratio greater than or equal to 10 fold between the Ki in the presence of SAM and the Ki in the presence of MTA)
- IC50 (HAP1 MTAP-intact): ≥ 10000 nM
- IC50 (PRMT5 [2]): 500 to 5000 nM
- IC50 (PRMT5 [3]): 50 to 500 nM
- IC50 (HAP1 MTAP-deleted): ≥ 10000 nM
- MTAP Intact/Deleted Ratio (HAP1 MTAP-deleted): C* (an IC50 ratio of less than 3 fold between the IC50 in the HAP1 MTAP-intact cell line and the HAP1 MTAP-deleted cell line)

SMILES: Cc1ncoc1COc1ccc2c(c1)CCN(C[C@@H](O)CNC(=O)c1cc(NC3CCCC3)ncn1)C2 [Compound 333, 6-(cyclopentylamino)-N-[(2S)-2-hydroxy-3-{6-[(4-methyl-1,3-oxazol-5-yl)methoxy]-1,2,3,4-tetrahydroisoquinolin-2-yl}propyl]pyrimidine-4-carboxamide]
- IC50 (PRMT5 [1]): 50 to 500 nM
- SAM/MTA Ratio (PRMT5 [1]): A (a Ki ratio greater than or equal to 10 fold between the Ki in the presence of SAM and the Ki in the presence of MTA)
- IC50 (HAP1 MTAP-intact): < 1000 nM
- IC50 (PRMT5 [2]): ≥ 5000 nM
- IC50 (PRMT5 [3]): 50 to 500 nM
- IC50 (HAP1 MTAP-deleted): < 1000 nM
- MTAP Intact/Deleted Ratio (HAP1 MTAP-deleted): C* (an IC50 ratio of less than 3 fold between the IC50 in the HAP1 MTAP-intact cell line and the HAP1 MTAP-deleted cell line)

SMILES: O=C(NC[C@H](O)CN1CCc2cc(OCc3cnco3)ccc2C1)c1cc(NC2CCC2)ncc1F [Compound 334, (S)-2-(cyclobutylamino)-5-fluoro-N-(2-hydroxy-3-(6-(oxazol-5-ylmethoxy)-3A-dihydroisoquinolin-2(1H)-yl)propyl)isonicotinamide]
- IC50 (PRMT5 [1]): 50 to 500 nM
- SAM/MTA Ratio (PRMT5 [1]): A (a Ki ratio greater than or equal to 10 fold between the Ki in the presence of SAM and the Ki in the presence of MTA)
- IC50 (HAP1 MTAP-intact): < 1000 nM
- IC50 (PRMT5 [2]): ≥ 5000 nM
- IC50 (PRMT5 [3]): 500 to 5000 nM
- IC50 (HAP1 MTAP-deleted): < 1000 nM
- MTAP Intact/Deleted Ratio (HAP1 MTAP-deleted): C* (an IC50 ratio of less than 3 fold between the IC50 in the HAP1 MTAP-intact cell line and the HAP1 MTAP-deleted cell line)

SMILES: O=C(NC[C@H](O)CN1CCc2c(ccc(OCc3cnco3)c2Cl)C1)c1cccc(NC2CCC2)c1 [Compound 335, (S)—N-(3-(5-chloro-6-(oxazol-5-ylmethoxy)-3,4-dihydroisoquinolin-2(1H)-yl)-2-hydroxypropyl)-3-(cyclobutylamino)benzamide]
- IC50 (PRMT5 [1]): 500 to 5000 nM
- SAM/MTA Ratio (PRMT5 [1]): A (a Ki ratio greater than or equal to 10 fold between the Ki in the presence of SAM and the Ki in the presence of MTA)
- IC50 (HAP1 MTAP-intact): ≥ 10000 nM
- IC50 (PRMT5 [2]): ≥ 5000 nM
- IC50 (PRMT5 [3]): 500 to 5000 nM
- IC50 (HAP1 MTAP-deleted): ≥ 10000 nM
- MTAP Intact/Deleted Ratio (HAP1 MTAP-deleted): C* (an IC50 ratio of less than 3 fold between the IC50 in the HAP1 MTAP-intact cell line and the HAP1 MTAP-deleted cell line)
